From patent US20230340061A1, “PEPTIDES AND METHODS FOR THE TREATMENT OF MULTIPLE SCLEROSIS” (IMCYSE SA, priority 2020, published 2023)

Columns and labels:
[1] = test system: CD4+ T cells of patients with multiple sclerosis; test: Generation of antigen specific CD4+ T cells, CD154 (CD40L) expression by flow cytometry; format: cell-based, human
Procedure: PBMCs were isolated from blood samples of patients with multiple sclerosis treated by dimethyl fumarate (DMF) on Lymphoprep density gradients.
CD14+ monocytes were isolated from these PBMCs by performing positive immunomagnetic separation with CD14 microbeads (Miltenyi Biotec, 130-050-201) according to the supplier recommendations. CD14+ monocytes were cultured for six days and maturated to generate autologous dendritic cells (mDC). CD19+ B cells were isolated from the CD14- PBMCs fraction by performing positive immunomagnetic separation with CD19 microbeads (Miltenyi Biotec, 130-050-301) according to the supplier recommendations. CD19+ B cells were cultured and immortalized with EBV to generate autologous lymphoblastoid cell lines (LCL).
(§1) Naïve CD4+ T cells were also purified from the CD14- PBMCs fraction by performing negative immunomagnetic separation with naïve CD4+ T cell isolation kit (Miltenyi Biotec, 130-094-131) according to the supplier recommendations. Naïve CD4+ T cells were co-cultured with autologous mDC or LCL in the presence of P2 and P4 peptides. The CD4+ T cells were re-stimulated periodically, about every 10-12 days.
The ability of the peptides to generate antigen specific CD4+ T cells was evaluated by flow cytometry analysis of the TCR induced surface activation marker CD154 (CD40L) expression after overnight co-culture at resting state with autologous LCL without (no peptide) or with the peptides (P2 or P4). The surface expression of the lytic marker Fas ligand (CD178) was also evaluated by flow cytometry analysis after overnight co-culture at resting state with autologous LCL without (no peptide) or with the peptide (P4).

[2] = test system: CD4+ T cells of patients with multiple sclerosis; test: Cytokine secretion in CD4+ T cell culture supernatants (LEGENDplex Human Th Panel); format: cell-based; conditions: for specific secretion of cytokine (IL-5): culture supernatant of MS017 (S15) CD4+ cell line, P4 vs C-WT epitope peptides
Excerpt: as §1
The ability of the peptides to induce cytokines secretion in CD4+ T cells culture supernatants was evaluated by flow cytometry analysis after overnight co-culture at resting state with autologous mDC without (no peptide) or with the peptides (P2 or P4). Supernatants were analyzed with the LEGENDplex Human Th Panel (13-plex) (BioLegend, 740721) according to the supplier recommendations.

[3] = Oxidoreductase activity, fluorescent assay with FITC labelled peptides; format: biochemical; conditions: reduction of self-quenched FITC labelled peptides, fluorescence
Excerpt: The peptides of the invention comprise an MHC class II T-cell epitope or NKT cell epitope of MOG with a potential to trigger an immune reaction, and a modified oxidoreductase motif. The reducing activity of the motif sequence in the peptide can be assayed for its ability to reduce a sulfhydryl group such as in the insulin solubility assay wherein the solubility of insulin is altered upon reduction, or with a fluorescence-labelled substrate such as insulin. An example of such assay uses a fluorescent peptide and is described in Tomazzolli et al. (2006) Anal. Biochem. 350, 105-112. Two peptides with a FITC label become self-quenching when they covalently attached to each other via a disulfide bridge. Upon reduction by a peptide in accordance with the present invention, the reduced individual peptides become fluorescent again.
The oxidoreductase activity of the immunogenic peptides is determined using a fluorescent assay described in Tomazzolli et al. (2006) Anal. Biochem. 350, 105-112. Two peptides with a FITC label become self-quenching when they form a covalent disulfide bond. Upon reduction by a peptide in accordance with the present invention, the reduced individual FITC labelled peptides emit fluorescence again. The activity is expressed as the mean of duplicates. The results are expressed in Relative Fluorescent Units (RFU). […]

[4] = test system: Experimental Auto-Immune Encephalomyelitis (EAE); test: Therapeutic administration in MOG35-55-induced EAE; format: in vivo; conditions: 30 μg s.c. with alum, days 4, 9, 14, 19
Procedure: The study used a total of 48 female C57BL/6 mice (Taconic Biosciences, 9 weeks old on Day 0). Mice were acclimated for 7 days prior to the first injection. Mice were assigned to groups in a balanced manner to achieve similar average weight across the groups at the start of the study.
Dosing of all mice was performed once on each of the days indicated in Table 2, s.c., at a volume of 0.05 mL/site, each mouse receiving injection at two sites, for a total of 0.1 mL/mouse/dosing day. IMCY-0189 or P4 peptide total dose was 30 μg per administration.
Lyophilized immunogenic peptide IMCY-0189 with the sequence […] (SEQ ID NO: 260), comprising an oxidoreductase motif HCPYC (SEQ ID NO: 24), a linker GW, a murine Myelin Oligodendrocyte Glycoprotein (MOG35-55) MHCII T cell epitope […] (SEQ ID NO: 261) and a flanking sequence HLYR (SEQ ID NO: 262) (Smart Bioscience) was solubilized immediately before use. Lyophilized IMCY-0189 was thawed at room temperature for 10 minutes, resuspended in Na Acetate buffer 50 mM NaCl 0.9% pH 5.4 and incubated at room temperature for 10 minutes. Reconstituted peptide was then mixed with Imject™ Alum Adjuvant before injection.
Lyophilized immunogenic peptide P4 with the sequence […] (SEQ ID NO: 27), comprising an oxidoreductase motif KHCPYC (SEQ ID NO: 50), a linker VRY, a human Myelin Oligodendrocyte Glycoprotein (MOG201-212) MHCII T cell epitope […] (SEQ ID NO: 2) and a flanking sequence TLFKK (SEQ ID NO: 263) (Smart Bioscience) was solubilized immediately before use. Lyophilized P4 was thawed at room temperature for 10 minutes, resuspended in Na Acetate buffer 50 mM NaCl 0.9% pH 5.4 and incubated at room temperature for 10 minutes. Reconstituted peptide was then mixed with Imject™ Alum Adjuvant before injection.
EAE was induced in all mice as follows: • Day 0, Hour 0—Immunization with a peptide corresponding to the amino acids 35-55 of MOG (MOG35-55)/CFA • Day 0, Hour 2—Injection of pertussis toxin • Day 1, Hour 0—2nd injection of pertussis toxin (24 hours after initial immunization).
Mice were injected subcutaneously at two sites in the back with the emulsion component (containing MOG35-55) of Hooke Kit™ MOG35-55/CFA Emulsion PTX, catalog number EK-2110 (lot #131, Hooke Laboratories, Lawrence MA). One site of injection was in the area of upper back, approximately 1 cm caudal of the neck line. The second site was in the area of lower back, approximately 2 cm cranial of the base of the tail. The injection volume was 0.1 mL at each site. Each mouse received 200 μg of MOG35-55.
Within 2 hours of the injection of emulsion, and then again 24 hours after the injection of emulsion, the pertussis toxin component of the kit was administered intraperitoneally. The pertussis toxin (lot #1008, Hooke Laboratories) was administered at 90 ng/dose for both injections and the volume of each injection was 0.1 mL.
Animals were scored daily starting from Day 7 to the end of the study. Scoring was performed blind, by a person unaware of both treatment and of previous scores for each mouse. In-between scores were assigned when the clinical signs fell between two above defined scores.
On Day 28, blood was collected from all mice into gel clot activator tubes and allowed to clot at room temperature for ˜30 minutes. Blood is then centrifuged at ˜10000 g for 5 minutes. Serum was transferred into Eppendorf tubes and stored at −80° C. until shipment to Quanterix™. Serum Neurofilament light (NF-L) protein levels were quantified using Simoa® NF-light Advantage kit, a digital immunoassay for the quantitative determination of NF-L in serum, plasma and CSF. The used antibodies (Uman Diagnostics, Umea Sweden) also cross react with murine, bovine and macaque NF-L epitopes and as such, this assay can be used for research with these species. All samples were tested in duplicate at a dilution factor of 40×. […]

[5] = test system: Experimental Auto-Immune Encephalomyelitis (EAE); test: Prophylactic administration in adoptive-transfer EAE; format: in vivo, mice; conditions: 100 μg s.c. with alum, days −21, −14, −7, +2, +9
Procedure: EAE was induced in recipient mice by immunizing donor B6.SJL mice with MOG35-55/CFA, and then, 11 days later, by taking their spleens and restimulating them in culture with MOG35-55 peptide for 3 days. Those cells, now fully encephalitogenic, were injected on Day 0 into recipient groups of mice, which developed EAE.
B6.SJL donor mice were acclimated for 13 days before the start of the study and were 9 weeks old at the time of immunization. Donor mice were used to generate encephalitogenic cells as follows: • Day −14: Immunization with MOG35-55/CFA. • Day −3: Spleen harvest. Mice were euthanized and spleens were harvested, pooled and cell suspension prepared. Cell suspension, at 4 to 5 million cells/mL in T150 flasks, were set up in cultures in the presence of MOG35-55 peptide (20 μg/mL), IL-12 ([…]) and anti-IFNγ (7 μg/mL) for 3 days to generate encephalitogenic T cells. • Day 0: Cell collection and transfer. Cells were collected and spun down, resuspended in RPM11640 (no FCS), counted, and injected into recipient mice at 10 million cells per mouse.
Recipient mice were acclimated for 6 days prior to the first injection and were 6 weeks old when treatment started (on Day −21). Mice were assigned to groups in a balanced manner, to achieve similar average weight across the groups at the start of the study.
Dosing of all mice was performed once on each of the days indicated in Table 4, s.c., at a volume of 0.05 mL/site, each mouse receiving injection at two sites, for a total of 0.1 mL/mouse/dosing day, corresponding to 100 μg of peptide.
For Vehicle treatment, Imject™ Alum solution was prepared at each dosing day. IMCY-0189 has the sequence described in example 6. Lyophilized IMCY-0189 was thawed at room temperature for 10 minutes, resuspended in Na Acetate buffer 50 mM pH 5.4 and incubated at room temperature for 5 minutes. Reconstituted peptide was then mixed with Imject™ Alum Adjuvant before injection.
At termination, blood was collected from all mice into tubes containing K2EDTA and mixed gently. Blood was then centrifuged at ˜10000 g for 5 minutes. Plasma was transferred into Eppendorf tubes and stored at −80° C. until shipment to Quanterix™. Plasma Neurofilament light (NF-L) protein levels were quantified using Simoa© NF-light Advantage kit as described in example 6.
EAE scoring, terminal collection, histology analyses and statistical analyses were performed as described in example 6.

[6] = target: T1, soluble HLA-DRB1*04:01 human MHC II protein (human); test: soluble-phase competition vs biotin-tagged control peptide, Eu3+-streptavidin fluorescence (FIG. 3)
T1 construct: Soluble protein purchased from the Benaroya Research Institute; also called HLA-DR4; DR4
Procedure: To test the binding of the immunogenic peptides to MHCII molecules, a soluble phase competition assay is performed. […] As binding approaches its equilibrium (18h), biotin-labelled peptide/MHC II complexes are captured, separated from unbound reagents, and quantitatively detected by time-resolved fluorescence (Eu³⁺ streptavidin, Perkin Elmer, Brussels, Belgium). […] Data are processed and plotted to ascertain dose-dependent binding properties of test peptides. All the tests are performed in triplicates.

[7] = target: T2, soluble HLA-DRB1*03:01 human MHC II protein (human); test: soluble-phase competition vs biotin-labelled control peptide, Eu3+-streptavidin time-resolved fluorescence
T2 construct: Soluble protein purchased from the Benaroya Research Institute; also called HLA-DR3; DR3

Molecule: DPHFLRVPCWKITLFKK [short C-WT, reference compound]
- specific induction of effector cells (CD3+CD4+CD154+) ([1]; P4-specific CD4+ cell lines of patients MS017 (S14) and MS026 (S13), overnight co-culture): specific induction
- specific secretion of cytokine (IL-5) [2]: specific secretion

Molecule: HCHGCVRYFLRVPCWKI [P6]
- oxidoreductase activity [3]: displayed oxidoreductase activity

Molecule: HCPYCGG-FLRVPCWKI [P7]
- oxidoreductase activity [3]: displayed oxidoreductase activity

Molecule: HCPYCGWYRSPFSRVVHLYR [IMCY-0189]
- mortality ([4]; to day 28): No mice died
- AUC (area under the curve) of EAE scores ([4]; vs Saline group): statistically significant reduced
- MMS (mean maximal score) ([4]; vs Saline group): statistically significant reduced
- disease onset ([4]; vs Saline group): postponed
- level of demyelination (anti-MBP stained spinal cord sections) ([4]; vs Saline group): statistically significantly reduced level
- level of inflammation (inflammatory foci, H&E stained spinal cord sections) ([4]; vs Saline group): statistically significantly reduced level
- serum NF-L levels ([4]; Day 28, vs Saline group): statistically significant reduced
- end score ([4]; EAE score 0-5, vs Saline group): reduced
- mortality [5]: No mice died
- AUC (area under the curve) of EAE scores ([5]; vs Alum group): statistically significantly improved
- MMS (mean maximal score) ([5]; vs Alum group): statistically significantly improved
- disease onset ([5]; vs Alum group): statistically significantly improved
- end score ([5]; vs Alum group): statistically significantly improved
- level of demyelination (anti-MBP stained spinal cord sections) ([5]; vs Alum group): statistically significantly reduced level
- level of inflammation (inflammatory foci, H&E stained spinal cord sections) ([5]; vs Alum group): statistically significantly reduced level
- plasma NF-L levels ([5]; at termination, vs Alum group): statistically significantly reduced

Molecule: HCPYCVRYFLRVPSWKITLF [P2]
- generation of peptide-specific CD4+ T cell lines from MS patients ([1]; naive CD4+ T cells co-cultured with autologous mDC or LCL in presence of peptide): able to generate P2-specific CD4+ T cell lines from four different MS patients
- frequency of effector cells (CD3+CD4+CD154+) ([1]; patients' CD4+ cell lines, overnight co-culture with autologous LCL with peptide vs no peptide): high frequency
- specific secretion of cytokines (IL-5 and IL-13) ([2]; culture supernatant of MS026 CD4+ cell line (S11)): specific secretion

Molecule: QYRLRGKLRAEIENLHRTFDPHFLRVPCWKITLFVIVPVLGP [long C-WT, reference compound]
- specific secretion of cytokine (IL-5) [2]: specific secretion

B1: P2 peptide HCPYCVRYFLRVPSWKITLF (peptide)
peptide: HCPYCVRYFLRVPSWKITLF
notes: Synthetic
- binding result [6]: binds
- binding result [7]: binds
